Some test systems named below: SN12C; U-251; NCI/ADR-RES; NCI-H226; NCI-H522; NCI-H23; 786-0; SK-OV-3; PC-3; HT-29; LOX IMVI; SF-268; HOP-92; EKVX; T47D; HCC 2998; A549; Malme-3M; TK-10; UO-31.
Holding throughout (test): inhibition of tumour cell growth, NCI panel, 48 h

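1) Cells in 96-well plates. 2) Compound, 48 h, 5 concentrations. 3) Linear interpolation between surrounding doses. 4) Unreached endpoint = highest concentration. GI50 marks 50% less growth.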 Activity calls are given as the source filed them. No stated cut-off is given here; in the data, active = GI50 up to about 1.1 µM and inactive = higher.

Consider `C[C@]12CC(c3ccccc3O1)C(C(N)=O)C(=O)N2` (stereo not given in full), for which the GI50 in the assay with SN12C, with U-251, in the assay on NCI/ADR-RES, in the assay on NCI-H226, in the assay on NCI-H522 and in the assay on NCI-H23 was > 100 µM (inactive) in each case. The GI50 with 786-0, with SK-OV-3, in the assay with PC-3, in the assay on HT-29, in the assay with LOX IMVI and in the assay on SF-268 was > 100 µM (inactive) in each case. Besides, the GI50 in the assay on HOP-92, with EKVX, with T47D, with HCC 2998, in the assay on A549 and in the assay with Malme-3M was > 100 µM (inactive) throughout.
Regarding `COc1ccc(C23OCC(Cc4cc(OC)c(OC)cc42)C3COC(C)=O)cc1OC` (stereo not given), the GI50 with TK-10 is > 100 µM (inactive); with U-251, > 100 µM (inactive); in the assay on NCI/ADR-RES, 25.5 µM (inactive); in the assay with NCI-H226, 5.66 µM (inactive); in the assay with NCI-H522, > 100 µM (inactive); in the assay with NCI-H23 it was 56.1 µM (inactive). The GI50 with 786-0, with SK-OV-3, in the assay on PC-3, in the assay on HT-29, in the assay on UO-31 and with LOX IMVI was > 100 µM (inactive) in each case. Moreover, the GI50 with SF-268, in the assay on HOP-92, in the assay on EKVX, with T47D, in the assay on HCC 2998 and in the assay with A549 was > 100 µM (inactive) throughout. In addition, the GI50 in the assay on Malme-3M is > 100 µM (inactive).
In the case of `CC(C)(/C=N\O)NO`, the GI50 with SN12C, in the assay on TK-10, in the assay with U-251, in the assay on NCI/ADR-RES, with NCI-H226 and in the assay on NCI-H522 was > 10 µM (inactive) each time. The GI50 in the assay on NCI-H23, with 786-0, in the assay with PC-3, in the assay on HT-29, in the assay on UO-31 and in the assay on LOX IMVI was > 10 µM (inactive) each time. Moreover, the GI50 with SF-268, with HOP-92, with EKVX, in the assay with T47D, in the assay on HCC 2998 and with A549 was > 10 µM (inactive) in each case. Further, in the assay with Malme-3M, the GI50 is > 10 µM (inactive).
As to `CC[C@H](C)[C@@H]([C@@H](CC(=O)N1CCC[C@H]1[C@H](OC)[C@@H](C)C(=O)NCCc1ccccc1)OC)N(C)C(=O)C(NC(=O)[C@H](C(C)C)N(C)C)C(C)C` (stereo not given in full), the GI50 is 0.000361 µM (active) in the assay with SN12C; 0.000676 µM (active) in the assay on TK-10; 0.000251 µM (active) with U-251; 0.00736 µM (active) with NCI/ADR-RES; 0.00064 µM (active) in the assay with NCI-H226; 5.83e-05 µM (active) with NCI-H522. Besides, the GI50 with NCI-H23 is 0.000314 µM (active); in the assay on 786-0, 0.00021 µM (active); with PC-3, 0.000119 µM (active); in the assay on HT-29, 8.89e-05 µM (active); in the assay on UO-31, 0.00103 µM (active); in the assay on LOX IMVI it was 0.000299 µM (active). The GI50 in the assay with SF-268 was 0.000658 µM (active); with HOP-92 it was 0.0069 µM (active); in the assay with EKVX it was 0.000964 µM (active); in the assay with T47D, > 10 µM (inactive); with HCC 2998 it was 0.000266 µM (active); in the assay with A549 it was 0.000248 µM (active). Moreover, the GI50 with Malme-3M is 0.001 µM (active).

These data come from ChEMBL document CHEMBL1201862, “PubChem BioAssay data set” (2004).
